Assays:
[1] = biological target: Adenosine A2 receptor (Rattus norvegicus, UniProt P29276+P30543)
[2] = tested on: Rattus norvegicus; assay: Ratio of sodium ion/potassium ion concentration in treated rats to that in control rats, at a peroral dose of 1.6 mg/Kg; assay type: functional
[3] = tested on: Rattus norvegicus; assay: Percent inhibition of serum creatinine by the compound given as ratio of Cr value in treated to vehicle treated ones after intraperitoneal administration of 1 mg/kg of compound to rats(vehicle 4.82+/-0.17); assay type: functional; conditions: ip
[4] = tested on: Rattus norvegicus; assay: Oral diuretic activity was measured after oral administration of 1.6 mg/kg to rats(control volume is 0.97+/-0.05); assay type: functional, Urine
[5] = tested on: Rattus norvegicus; assay: Effect on urinary excretion potassium and sodium after oral administration of 0.4 mg/kg to rats(potassium and sodium excretion in control rat is 0.267+/-0.044); assay type: functional, Urine
[6] = tested on: Rattus norvegicus; assay: Urea nitrogen concentration measured after intraperitoneal administration of 1 mg/kg of compound to rats(vehicle 151.5+/-7.4); assay type: functional
[7] = tested on: Rattus norvegicus; assay: Serum creatinine concentration measured after intraperitoneal administration of 1 mg/kg of compound to rats(vehicle 4.82+/-0.17); assay type: functional
[8] = tested on: Rattus norvegicus; assay: Percent inhibition of Urea nitrogen by the compound given as ratio of UN value in treated to vehicle treated ones after intraperitoneal administration of 1 mg/kg of compound to rats(vehicle 151.5+/-7.4); assay type: functional; conditions: ip
[9] = tested on: Rattus norvegicus; assay: Urea nitrogen concentration measured after intraperitoneal administration of 0.01 mg/kg of compound to rats(vehicle 130.6+/-4.1); assay type: functional
[10] = tested on: Rattus norvegicus; assay: Ratio of urinary excretion value (urinary volume) in treated rats to that in control rats, at a peroral dose of 1.6 mg/Kg; assay type: functional, Urine
[11] = tested on: Rattus norvegicus; assay: Ratio of urinary excretion value (Na+ concentration) in treated rats to that in control rats, at a peroral dose of 0.4 mg/Kg; assay type: functional, Urine
[12] = tested on: Rattus norvegicus; assay: Ratio of urinary excretion value (Na+ concentration) in treated rats to that in control rats, at a peroral dose of 1.6 mg/Kg; assay type: functional, Urine
[13] = tested on: Rattus norvegicus; assay: Effect on urinary excretion potassium and sodium after oral administration of 1.6 mg/kg to rats(potassium and sodium excretion in control rat is 0.169+/-0.012); assay type: functional, Urine
[14] = tested on: Rattus norvegicus; assay: Ratio of urinary excretion value (urinary volume) in treated rats to that in control rats, at a peroral dose of 0.4 mg/Kg; assay type: functional, Urine
[15] = tested on: Rattus norvegicus; assay: Percent inhibition of serum creatinine by the compound given as ratio of Cr value in treated to vehicle treated ones after intraperitoneal administration of 0.1 mg/kg of compound to rats(vehicle 3.62+/-0.23); assay type: functional; conditions: ip
[16] = tested on: Rattus norvegicus; assay: Serum creatinine concentration measured after intraperitoneal administration of 0.1 mg/kg of compound to rats(vehicle 3.62+/-0.23); assay type: functional
[17] = tested on: Rattus norvegicus; assay: Percent inhibition of Urea nitrogen by the compound given as ratio of UN value in treated to vehicle treated ones after intraperitoneal administration of 0.1 mg/kg of compound to rats(vehicle 141.3+/-8.3); assay type: functional; conditions: ip
[18] = tested on: Rattus norvegicus; assay: Percent inhibition of serum creatinine by the compound given as ratio of Cr value in treated to vehicle treated ones after intraperitoneal administration of 0.01 mg/kg of compound to rats(vehicle 4.50+/-0.24); assay type: functional; conditions: ip
[19] = tested on: Rattus norvegicus; assay: Urea nitrogen concentration measured after intraperitoneal administration of 0.1 mg/kg of compound to rats(vehicle 141.3+/-8.3); assay type: functional
[20] = tested on: Rattus norvegicus; assay: Serum creatinine concentration measured after intraperitoneal administration of 0.01 mg/kg of compound to rats(vehicle 4.50+/-0.24); assay type: functional
[21] = tested on: Rattus norvegicus; assay: Oral diuretic activity was measured after oral administration of 0.4 mg/kg to rats(control volume is 1.72+/-0.31); assay type: functional, Urine
[22] = tested on: Rattus norvegicus; assay: Ratio of sodium ion/potassium ion concentration in treated rats to that in control rats, at a peroral dose of 0.4 mg/Kg; assay type: functional
[23] = tested on: Rattus norvegicus; assay: Percent inhibition of Urea nitrogen by the compound given as ratio of UN value in treated to vehicle treated ones after intraperitoneal administration of 0.01 mg/kg of compound to rats(vehicle 130.6+/-4.1); assay type: functional; conditions: ip
[24] = biological target: T1, Adenosine receptor A1 (Cavia porcellus, UniProt P47745)
T1 sequence (P47745 whole entry): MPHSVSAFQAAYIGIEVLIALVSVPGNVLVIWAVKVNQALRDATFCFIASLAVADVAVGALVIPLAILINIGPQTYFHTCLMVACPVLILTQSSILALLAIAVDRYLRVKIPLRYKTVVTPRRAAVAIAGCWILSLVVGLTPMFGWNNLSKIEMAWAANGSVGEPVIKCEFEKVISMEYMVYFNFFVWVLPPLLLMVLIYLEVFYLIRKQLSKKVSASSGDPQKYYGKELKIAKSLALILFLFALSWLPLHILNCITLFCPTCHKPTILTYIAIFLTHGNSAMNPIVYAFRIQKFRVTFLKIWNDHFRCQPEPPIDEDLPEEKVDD
Description: Binding affinity against adenosine A1 receptor in guinea pig forebrain membranes using N6-[3H]cyclohexyladenosine as radioligand

[25] = tested on: Rattus norvegicus; assay: Ratio of urinary excretion value (Na+ concentration) in treated rats to that in control rats, at a peroral dose of 25 mg/Kg; assay type: functional, Urine
[26] = tested on: Rattus norvegicus; assay: Effect on urinary excretion potassium and sodium after oral administration of 25 mg/kg to rats(potassium and sodium excretion in control rat is 0.180+/-0.024); assay type: functional, Urine
[27] = tested on: Rattus norvegicus; assay: Ratio of sodium ion/potassium ion concentration in treated rats to that in control rats, at a peroral dose of 25 mg/Kg; assay type: functional
[28] = tested on: Rattus norvegicus; assay: Effect on urinary excretion potassium and sodium after oral administration of 1.6 mg/kg to rats(potassium and sodium excretion in control rat is 0.105+/-0.002); assay type: functional, Urine
[29] = tested on: Rattus norvegicus; assay: Serum creatinine concentration measured after intraperitoneal administration of 1 mg/kg of compound to rats(vehicle 5.07+/-0.33); assay type: functional; conditions: 1 mg/kg
[30] = tested on: Rattus norvegicus; assay: Ratio of urinary excretion value (urinary volume) in treated rats to that in control rats, at a peroral dose of 25 mg/Kg; assay type: functional, Urine
[31] = tested on: Rattus norvegicus; assay: Urea nitrogen concentration measured after intraperitoneal administration of 1 mg/kg of compound to rats(vehicle 195.8+/-14.4); assay type: functional; conditions: 1 mg/kg
[32] = tested on: Rattus norvegicus; assay: Percent inhibition of Urea nitrogen by the compound given as ratio of UN value in treated to vehicle treated ones after intraperitoneal administration of 1 mg/kg of compound to rats(vehicle 195.8+/-14.4); assay type: functional; conditions: Rattus norvegicus, ip
[33] = organism: Rattus norvegicus; assay: animal or person; conditions: ip, read-out: Inhibition, dose 1 mg/kg, route intraperitoneal
[34] = tested on: Rattus norvegicus; assay: Oral diuretic activity was measured after oral administration of 1.6 mg/kg to rats(control volume is 0.79+/-0.12); assay type: functional, Urine
[35] = tested on: Rattus norvegicus; assay: Oral diuretic activity was measured after oral administration of 25 mg/kg to rats(control volume is 1.00+/-0.09); assay type: functional, Urine

## CCn1c(=O)c2nc(C34CC5CC(CC3C5)C4)[nH]c2n(CC)c1=O
[1]
  Ki: 1600 nM
[2]
  Na+/K+: 1.97
[3]
  inhibition in vivo at 1 mg/kg: 57%
[4]
  Urine volume: 2.9 ml 6hr-1 100g-1
[5]
  Na: 0.356 m equiv 6hr-1 100g-1
[6]
  UN: 65.9 mg/dL
[7]
  Cr: 2.09 mg/dL
[8]
  inhibition in vivo at 1 mg/kg: 56%
[9]
  UN: 81.7 mg/dL
[10]
  T/C: 2.99
[11]
  T/C: 1.33
[12]
  T/C: 2.92
[13]
  Na: 0.492 m equiv 6hr-1 100g-1
[14]
  T/C: 1.33
[15]
  inhibition in vivo at 0.1 mg/kg: 63%
[16]
  Cr: 1.44 mg/dL
[17]
  inhibition in vivo at 0.1 mg/kg: 68%
[18]
  inhibition in vivo at 0.01 mg/kg: 37%
[19]
  UN: 44.5 mg/dL
[20]
  Cr: 2.82 mg/dL
[21]
  Urine volume: 2.29 ml 6hr-1 100g-1
[22]
  Na+/K+: 1.29
[23]
  inhibition in vivo at 0.01 mg/kg: 37%

## CCCn1c(=O)c2nc(C3CC4CCC3C4)[nH]c2n(CCC)c1=O (stereo in doubt; 19)
[24]
  Ki: 3.8 nM
[25]
  T/C: 2.37
[26]
  Na: 0.427 m equiv 6hr-1 100g-1
[1]
  Ki: 440 nM
[2]
  Na+/K+: 2.04
[27]
  Na+/K+: 1.84
[28]
  Na: 0.337 m equiv 6hr-1 100g-1
[29]
  Cr: 2.59 mg/dL
[30]
  T/C: 2.54
[10]
  T/C: 3.14
[31]
  UN: 101 mg/dL
[12]
  T/C: 3.22
[32]
  inhibition in vivo at 1 mg/kg: 48%
[33]
  inhibition in vivo at 1 mg/kg: 49%
[34]
  Urine volume: 2.48 ml 6hr-1 100g-1
[35]
  Urine volume: 2.54 ml 6hr-1 100g-1
